From the supplement of paper PMC10307832

How the values were obtained:
Assay in all cases: relative viability (nuclei count vs DMSO), 5 days (fraction); higher = more cells survive
A-427 = tested on: A-427
Summary of the method: (§1)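 For relative viability, nuclei counts in treated wells were divided by those in vehicle wells. Lung cancer cell lines had been pin-tool dosed in 1536-well plates the day after seeding and cultured for 5 days, then fixed and stained in one step (final 0.05% Triton X-100, 1% formaldehyde, 1 ug/ml Hoechst) and imaged at 4×. Doses were one drug alone or a fixed anchor-drug dose plus five library-drug doses (not always all listed) in √10 steps, and values are duplicate-plate medians.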

ABC-1 = tested on: ABC-1
Summary of the method: as §1

CAL-12T = tested on: CAL-12T
Summary of the method: as §1

H3255 = tested on: H3255
Summary of the method: as §1

LC-2-ad = tested on: LC-2-ad
Summary of the method: as §1

LCLC-97TM1 = tested on: LCLC-97TM1
Summary of the method: as §1

LK-2 = tested on: LK-2
Summary of the method: as §1

NCI-H1355 = tested on: NCI-H1355
Summary of the method: as §1

NCI-H1395 = tested on: NCI-H1395
Summary of the method: as §1

NCI-H1651 = tested on: NCI-H1651
Summary of the method: as §1

NCI-H1666 = tested on: NCI-H1666
Summary of the method: as §1

NCI-H1915 = tested on: NCI-H1915
Summary of the method: as §1

NCI-H2085 = tested on: NCI-H2085
Summary of the method: as §1

NCI-H2087 = tested on: NCI-H2087
Summary of the method: as §1

NCI-H2228 = tested on: NCI-H2228
Summary of the method: as §1

NCI-H322M = tested on: NCI-H322M
Summary of the method: as §1

NCI-H358 = tested on: NCI-H358
Summary of the method: as §1

NCI-H661 = tested on: NCI-H661
Summary of the method: as §1

NCI-H838 = tested on: NCI-H838
Summary of the method: as §1

PC-3 [JPC-3] = tested on: PC-3 [JPC-3]
Summary of the method: as §1

RERF-LC-KJ = tested on: RERF-LC-KJ
Summary of the method: as §1

SK-MES-1 = tested on: SK-MES-1
Summary of the method: as §1

UMC-11 = tested on: UMC-11
Summary of the method: as §1

Question: CCCCCCCCCCCC1=C(O)C(=O)C=C(O)C1=O [Embelin] + O=C(CCCCCCC(=O)Nc1ccccc1)NO [Vorinostat] (partner 1 µM) was tested. Which relative viability (A-427; first compound 0.08 µM) did it give?
Answer: 0.856

Question: What about the relative viability (A-427; first compound 0.8 µM) of the same compound?
Answer: 0.899

Question: What about the relative viability (A-427; first compound 2.53 µM) of the same compound?
Answer: 0.88

Question: What about the relative viability (A-427; first compound 8 µM) of the same compound?
Answer: 0.441

Question: And the relative viability (ABC-1; first compound 0.08 µM)?
Answer: 1.04

Question: And the relative viability (ABC-1; first compound 0.8 µM)?
Answer: 1.48

Question: What about the relative viability (ABC-1; first compound 2.53 µM) of the same compound?
Answer: 0.955

Question: What about the relative viability (ABC-1; first compound 8 µM) of the same compound?
Answer: 0.86

Question: What about the relative viability (CAL-12T; first compound 0.08 µM) of the same compound?
Answer: 0.848

Question: What about the relative viability (CAL-12T; first compound 0.8 µM) of the same compound?
Answer: 0.779

Question: What about the relative viability (CAL-12T; first compound 2.53 µM) of the same compound?
Answer: 0.677

Question: What about the relative viability (CAL-12T; first compound 8 µM) of the same compound?
Answer: 0.697

Question: And the relative viability (H3255; first compound 0.08 µM)?
Answer: 0.873

Question: And the relative viability (H3255; first compound 0.8 µM)?
Answer: 0.834

Question: What about the relative viability (H3255; first compound 2.53 µM) of the same compound?
Answer: 0.711

Question: And the relative viability (H3255; first compound 8 µM)?
Answer: 0.948

Question: What about the relative viability (LC-2-ad; first compound 0.08 µM) of the same compound?
Answer: 0.759

Question: What about the relative viability (LC-2-ad; first compound 0.8 µM) of the same compound?
Answer: 0.695

Question: What about the relative viability (LC-2-ad; first compound 2.53 µM) of the same compound?
Answer: 0.716

Question: What about the relative viability (LC-2-ad; first compound 8 µM) of the same compound?
Answer: 0.774

Question: What about the relative viability (LCLC-97TM1; first compound 0.08 µM) of the same compound?
Answer: 0.789

Question: And the relative viability (LCLC-97TM1; first compound 0.8 µM)?
Answer: 1.16

Question: And the relative viability (LCLC-97TM1; first compound 2.53 µM)?
Answer: 0.652

Question: What about the relative viability (LCLC-97TM1; first compound 8 µM) of the same compound?
Answer: 0.496

Question: What about the relative viability (LK-2; first compound 0.08 µM) of the same compound?
Answer: 0.308

Question: What about the relative viability (LK-2; first compound 0.8 µM) of the same compound?
Answer: 0.28

Question: And the relative viability (LK-2; first compound 2.53 µM)?
Answer: 0.261

Question: And the relative viability (LK-2; first compound 8 µM)?
Answer: 0.307

Question: And the relative viability (NCI-H1355; first compound 0.08 µM)?
Answer: 0.649

Question: What about the relative viability (NCI-H1355; first compound 0.8 µM) of the same compound?
Answer: 0.699

Question: What about the relative viability (NCI-H1355; first compound 2.53 µM) of the same compound?
Answer: 0.636

Question: And the relative viability (NCI-H1355; first compound 8 µM)?
Answer: 0.523

Question: And the relative viability (NCI-H1395; first compound 0.08 µM)?
Answer: 0.615

Question: What about the relative viability (NCI-H1395; first compound 0.8 µM) of the same compound?
Answer: 1

Question: And the relative viability (NCI-H1395; first compound 2.53 µM)?
Answer: 0.48

Question: What about the relative viability (NCI-H1395; first compound 8 µM) of the same compound?
Answer: 0.521

Question: What about the relative viability (NCI-H1651; first compound 0.08 µM) of the same compound?
Answer: 0.576

Question: And the relative viability (NCI-H1651; first compound 0.8 µM)?
Answer: 0.629

Question: What about the relative viability (NCI-H1651; first compound 2.53 µM) of the same compound?
Answer: 0.575

Question: What about the relative viability (NCI-H1651; first compound 8 µM) of the same compound?
Answer: 0.59

Question: What about the relative viability (NCI-H1666; first compound 0.08 µM) of the same compound?
Answer: 1.07

Question: What about the relative viability (NCI-H1666; first compound 0.8 µM) of the same compound?
Answer: 1.03

Question: What about the relative viability (NCI-H1666; first compound 2.53 µM) of the same compound?
Answer: 1.09

Question: And the relative viability (NCI-H1666; first compound 8 µM)?
Answer: 1.05

Question: And the relative viability (NCI-H1915; first compound 0.08 µM)?
Answer: 0.563

Question: And the relative viability (NCI-H1915; first compound 0.8 µM)?
Answer: 0.544

Question: What about the relative viability (NCI-H1915; first compound 2.53 µM) of the same compound?
Answer: 0.521

Question: And the relative viability (NCI-H1915; first compound 8 µM)?
Answer: 0.473

Question: What about the relative viability (NCI-H2085; first compound 0.08 µM) of the same compound?
Answer: 0.742

Question: And the relative viability (NCI-H2085; first compound 0.8 µM)?
Answer: 0.932

Question: And the relative viability (NCI-H2085; first compound 2.53 µM)?
Answer: 0.807

Question: And the relative viability (NCI-H2085; first compound 8 µM)?
Answer: 0.755

Question: And the relative viability (NCI-H2087; first compound 0.08 µM)?
Answer: 0.659

Question: What about the relative viability (NCI-H2087; first compound 0.8 µM) of the same compound?
Answer: 0.714

Question: And the relative viability (NCI-H2087; first compound 2.53 µM)?
Answer: 0.759

Question: And the relative viability (NCI-H2087; first compound 8 µM)?
Answer: 0.744

Question: What about the relative viability (NCI-H2228; first compound 0.08 µM) of the same compound?
Answer: 0.407

Question: What about the relative viability (NCI-H2228; first compound 0.8 µM) of the same compound?
Answer: 0.819

Question: What about the relative viability (NCI-H2228; first compound 2.53 µM) of the same compound?
Answer: 0.36

Question: What about the relative viability (NCI-H2228; first compound 8 µM) of the same compound?
Answer: 0.85

Question: And the relative viability (NCI-H322M; first compound 0.08 µM)?
Answer: 0.873

Question: And the relative viability (NCI-H322M; first compound 0.8 µM)?
Answer: 0.954

Question: What about the relative viability (NCI-H322M; first compound 2.53 µM) of the same compound?
Answer: 1.01

Question: And the relative viability (NCI-H322M; first compound 8 µM)?
Answer: 0.801

Question: And the relative viability (NCI-H358; first compound 0.08 µM)?
Answer: 0.699

Question: What about the relative viability (NCI-H358; first compound 0.8 µM) of the same compound?
Answer: 0.876

Question: And the relative viability (NCI-H358; first compound 2.53 µM)?
Answer: 0.707

Question: What about the relative viability (NCI-H358; first compound 8 µM) of the same compound?
Answer: 0.697

Question: And the relative viability (NCI-H661; first compound 0.08 µM)?
Answer: 0.787

Question: What about the relative viability (NCI-H661; first compound 0.8 µM) of the same compound?
Answer: 0.826

Question: What about the relative viability (NCI-H661; first compound 2.53 µM) of the same compound?
Answer: 0.788

Question: What about the relative viability (NCI-H661; first compound 8 µM) of the same compound?
Answer: 0.745

Question: What about the relative viability (NCI-H838; first compound 0.08 µM) of the same compound?
Answer: 0.746

Question: And the relative viability (NCI-H838; first compound 0.8 µM)?
Answer: 0.835

Question: And the relative viability (NCI-H838; first compound 2.53 µM)?
Answer: 0.782

Question: What about the relative viability (NCI-H838; first compound 8 µM) of the same compound?
Answer: 0.704

Question: And the relative viability (PC-3 [JPC-3]; first compound 0.08 µM)?
Answer: 0.614

Question: And the relative viability (PC-3 [JPC-3]; first compound 0.8 µM)?
Answer: 0.95

Question: And the relative viability (PC-3 [JPC-3]; first compound 2.53 µM)?
Answer: 0.68

Question: And the relative viability (PC-3 [JPC-3]; first compound 8 µM)?
Answer: 0.604

Question: What about the relative viability (RERF-LC-KJ; first compound 0.08 µM) of the same compound?
Answer: 0.673

Question: And the relative viability (RERF-LC-KJ; first compound 0.8 µM)?
Answer: 0.769

Question: And the relative viability (RERF-LC-KJ; first compound 2.53 µM)?
Answer: 0.681

Question: What about the relative viability (RERF-LC-KJ; first compound 8 µM) of the same compound?
Answer: 0.603

Question: What about the relative viability (SK-MES-1; first compound 0.08 µM) of the same compound?
Answer: 1.1

Question: And the relative viability (SK-MES-1; first compound 0.8 µM)?
Answer: 1.2

Question: And the relative viability (SK-MES-1; first compound 2.53 µM)?
Answer: 1.1

Question: What about the relative viability (SK-MES-1; first compound 8 µM) of the same compound?
Answer: 0.898

Question: And the relative viability (UMC-11; first compound 0.08 µM)?
Answer: 0.39

Question: And the relative viability (UMC-11; first compound 0.8 µM)?
Answer: 0.407

Question: What about the relative viability (UMC-11; first compound 2.53 µM) of the same compound?
Answer: 0.372

Question: What about the relative viability (UMC-11; first compound 8 µM) of the same compound?
Answer: 0.393
